# US20260231848A1, “A METHOD OF TREATING SEEDS AND SEEDS PRODUCED THEREBY” (RESEARCH FOUNDATION OF THE CITY UNIVERSITY OF NEW YORK, priority 2023, published 2026)
# Assays:
# [1] = Dissolution of the compounds for the stock solution; assay type: physicochemical; details: stock solution of 100 mM; visible observation
# Protocol: In order to select the optimum concentration of NOSH and NOSH-ASA, a concentration gradient was performed. To achieve the gradient, a stock solution of 100 mM was prepared. […] Therefore, it was decided to prepare a stock solution using 100% DMSO and then dilute the composition to 0.1% DMSO.
# [2] = test system: Arabidopsis thaliana seeds (ecotype Col-0); experiment: Leaf 3 area and epidermal cell analysis of plants from treated seeds; assay type: in vivo; details: 50 μM at seed level, carrier 0.1% DMSO
# Protocol: For the leaf area analysis, 3rd true leaves were harvested from all the replicates and then the leaves were cleared in 100% ethanol, mounted in lactic acid on microscope slides, and photographed. Leaf areas were measured with the ImageJ software (http://rsb.info.nih.gov//ij/). Abaxial epidermal cells were drawn with a DMLB microscope (Leica) fitted with a drawing tube and a differential interference contrast objective. Drawings were scanned and analyzed using automated image analysis algorithms (Andriankaja et al. 2012). Subsequently, drawings were used to measure average cell size, from which the total pavement cell number was calculated. The stomatal index was defined as the percentage of stomata in relation to the number of epidermal cells. Statistical analysis was performed with SAS (Version 9.4 of the SAS System for windows 7 64 bit by using the mixed model analysis. Copyright C 2002-2012 SAS Institute Inc. Cary, NC, USA (www.sas.com). Finally, the ratio of leaf 3 area, pavement cell area, pavement cell number and stomata index measured on plants treated at seed level with 50 μM NOSH compared with plants received from carrier-treated seeds (seeds treated with 0.1% DMSO) were determined, the results of which is provided in FIG. 4 (values are averages of three biological repeats, with each repeat consisting of 6-8 plants).
# [3] = test system: Arabidopsis thaliana seeds (ecotype Col-0); experiment: Seed treatment at pre-germination stage, plant growth (rosette fresh weight, projected rosette area); assay type: in vivo; details: for concentration resulting in highest increase in fresh weight: screening at concentration gradient 0-100 μM, rosettes 22 DAS, seeds soaked 12 hrs
# Protocol: Stock solutions of NOSH or NOSH-ASA were each prepared by initial dissolution in 100% DMSO. From each stock solution, treatment compositions at a 0-100 μM concentration gradient (diluted in 0.1% v/v DMSO) were prepared. Arabidopsis thaliana seeds (ecotype Col-0) were treated at their pre-germination stage with different concentrations of NOSH or NOSH-aspirin solutions (0-100 μM concentration gradient) by soaking the seeds in Petri dishes at room temperature and in the dark. After 12 hrs, the seeds were air dried for 2-3 hrs. Four seeds per pot were sown in soil medium and stratified at 4° C. for 4 days to achieve germination uniformity. Then the pots were transferred to the growth room and allowed to grow under controlled conditions of 22° C., and a 16-hr day (100-120 μmol m^−2 s^−1)/8-hr night regime for 22 days (d). Nine Days After Stratification (DAS), one seedling, which had the projected rosette area closest to the median area of the treatment, was selected from the four seedlings sown per pot. Four independent experiments were carried out using a minimum of 6-8 independent plants as replicates per experiment. Projected Rosette Area (PRA) was determined by taking pictures of the rosettes 22 days after stratification (DAS). The pictures were subsequently analyzed using ImageJ software (http://rsb.info.nih.gov/ij/) to measure the size of each plant. Represented rosette sizes were calculated by taking the average of the individual plant per repeat and then per treatment. The same rosettes were used also for fresh weight measurements. In this connection it is noted that in preliminary experiments no substantial differences between the ratio of fresh weight and the ratio of dry weight under optimum soil water content was observed. Statistical analysis was performed with SAS (Version 9.4 of the SAS System for windows 7 64 bit by using the mixed model analysis. Copyright C 2002-2012 SAS Institute Inc. Cary, NC, USA (www.sas.com). Seeds were treated by seed soaking for 12 hr with NOSH at 50 μM. Four seeds were then sown in soil medium within a pot and allowed to grow for 22 days under the conditions described above.
# [4] = test system: plants from treated seeds; experiment: Stress protection: seed priming by vacuum infiltration, plants left un-watered (drought); assay type: in vivo
# Protocol: Seeds were treated with a NOSH composition comprising 30% methanol and the priming application method was vacuum infiltration (90 sec). […] Plants were growth on optimum condition until 37 days and then were left un-watered for 7 days. Observation on plant phenotype was performed and interesting differences on the plant appearance were recorded. […] This supported the conclusion that NOSH compounds enhance plant tolerance, (probably, however, without being bound to this hypothesis, by avoiding the accumulation of stress-related pigments such as anthocyanin).
# [5] = test system: baby spinach cultivars (Sunangel RZ, Scarne F1PV-1656); experiment: Baby spinach seed priming, growth under heat stress; assay type: in vivo; details: day 37-40° C., 50 μM seed priming 12 hours
# Protocol: NOSH-A was initially prepared in a stock solution of 50 mM using DMSO. The working solution was made by diluting the stock in water to reach a final concentration of 50 μM in 0.1% DMSO. Seed priming was performed by soaking the seeds of two baby spinach cultivars (Sunangel RZ, Scarne F1PV-1656) in NOSH-A solution for 12 hours at 25° C. Then the seeds were placed in gauze under the laminar flow for air-drying, till reaching their initial weight. Seeds were sown in the soil in a commercial greenhouse (FIG. 6a), and let to grow until day 30. Average day temperature ranged between 37-40° C., while night temperature ranged between 21-23° C. Growing plants were watered three times per week. All agronomic analyses were carried out using a minimum of nine independent plants per treatment, while survival percentage was calculated from a total of 300 plants per treatment.
# [6] = test system: tomato seeds (4 different varieties); experiment: Tomato seed priming under salt stress conditions; assay type: in vivo; details: for fruit yield per plant: 50 μM in 0.1% DMSO, seeds soaked 12 hours, vs untreated, hydroprimed, solvent-treated seeds
# Protocol: A experiment has been carried out, whereby the effect of NOSH-A pre-treatment of tomato seeds was examined under salt stress conditions. The treatments were as follows: • Untreated tomato seeds (4 different varieties—CV1-4) • Hydroprimed seeds (soaked in dH2O) • NOSH-A control treated seeds (soaked in 0.1% DMSO) • NOSH-A primed seeds NOSH-A was initially prepared in a stock solution of 50 mM using DMSO. The working solution was made by diluting the stock in water to reach a final concentration of 50 μM in 0.1% DMSO. Seed priming was performed by soaking the seeds in NOSH-A solution for 12 hours at 25° C. Then the seeds were placed in gauze under the laminar flow for air-drying, till reaching their initial weight. The seeds were sown in plastic seedling trays (1 seed per pot) filled with sterile soil, covered with a transparent film, and let to germinate in a growth chamber room under certain conditions of 24/20° C. day/night temperatures, 60-70% RH, with a photosynthetic photon flux density of 120 μmol m^2 s^−1 and a 16/8-h photoperiod. At day 7 after sowing, seedlings were transplanted into square plastic pots filled with sterilized pot soil, transferred into a glasshouse, and let to grow until day 24. Growing plants were watered three times per week. Plants were then watered with saline solution (7.8-12.0 dS/m), while controls were watered with dH2O, until fruiting. A total of four harvests were carried out, with yield data being the total of the four harvesting events. All analyses were carried out using six independent plants per treatment.
# [7] = control and high salinity conditions, 50 μM seed priming
dissolution directly in 0.1% DMSO [1],"seed germination after soaking ([4]; NOSH composition comprising 30% methanol, soaking 4 h, 12 h and 24 h, attributed to high percentage of methanol)",Structure (SMILES),"leaf 3 area, ratio to carrier-treated seeds [2]","pavement cell area, ratio to carrier-treated seeds [2]","pavement cell number, ratio to carrier-treated seeds [2]","stomata index, ratio to carrier-treated seeds [2]","growth of the leaves ([3]; 50 μM, seeds soaked 12 hr, 22 DAS, vs no NOSH treatment)","fresh weight of rosettes, ratio to carrier-treated seeds ([3]; 50 μM, seeds soaked 12 hr, 22 days, p value 0.0001)",concentration resulting in highest increase in fresh weight [3] [µM],"projected rosette area (PRA) ratio, treated seeds vs carrier-treated seeds ([3]; seeds exposed before germination, carrier 0.1% DMSO) [fold]",promoting growth following treatment at the seed level ([3]; treatment of seeds before germination),"plant phenotype / tolerance after drought ([4]; composition with 30% methanol, vacuum infiltration 90 sec, un-watered 7 days after 37 days, vs carrier-treated drought plants)",average leaf area [5],total plant leaf area [5],"survival percentage of plants ([5]; vs untreated, hydroprimed, solvent-treated seeds)","fruit dry weight [6, 7]","fruit fresh weight [6, 7]",fruit yield per plant ([6]; control conditions),fruit yield per plant ([6]; high salinity conditions (7.8-12.0 dS/m))
did not completely dissolve,no seed germination,O=C(CCCO[N+](=O)[O-])Oc1ccc(-c2cc(=S)ss2)cc1 [NOSH],statistically significant (p values indicated in the Figures) increase,statistically significant (p values indicated in the Figures) increase,statistically significant (p values indicated in the Figures) increase,statistically significant (p values indicated in the Figures) increase,increased growth of the leaves,statistically significant (p values indicated in the Figures) increase,50,> 1.5,more effective in promoting growth as compared to NOSH-NSAID,greener and with less anthocyanin on the leaves,–,–,–,–,–,–,–
did not completely dissolve,–,O=C(CCCO[N+](=O)[O-])Oc1ccccc1C(=O)Oc1ccc(-c2cc(=S)ss2)cc1 [NOSH-ASA],–,–,–,–,–,–,10,–,–,–,significant improvements,significant improvements,clear improvement,significant improvements,significant improvements,significant improvement,significant improvement
